System: HS68 fibroblasts
Experiment: MTT cytotoxicity against human dermal fibroblasts
Format: cell-based
Details: for CD50: vitamins alone; for VK3 CD50: in combination with Sodium L-Ascorbate

## O=C1O[C@H]([C@@H](O)CO)C([O-])=C1O.[Na+] [Sodium L-Ascorbate, sodium L-ascorbate]
In combination with VK3, ratio of vitamin C to vitamin K3 100, incubation 1 day
  VC CD50: 458 µM
In combination with VK3, ratio of vitamin C to vitamin K3 100, incubation 2 days
  VC CD50: 471 µM
In combination with VK3, ratio of vitamin C to vitamin K3 100, incubation 3 days
  VC CD50: 471 µM
In combination with VK3, ratio of vitamin C to vitamin K3 200, incubation 1 day
  VC CD50: 466 µM
In combination with VK3, ratio of vitamin C to vitamin K3 200, incubation 2 days
  VC CD50: 467 µM
In combination with VK3, ratio of vitamin C to vitamin K3 200, incubation 3 days
  VC CD50: 397 µM
Incubation 1 day
  CD50: 1468 µM
Incubation 2 days
  CD50: 1245 µM
Incubation 3 days
  CD50: 1185 µM

## CC1=CC(=O)c2ccccc2C1=O [VK3, vitamin K3]
Ratio of vitamin C to vitamin K3 100, incubation 1 day
  VK3 CD50: 4.7 µM
Ratio of vitamin C to vitamin K3 100, incubation 2 days
  VK3 CD50: 4.7 µM
Ratio of vitamin C to vitamin K3 100, incubation 3 days
  VK3 CD50: 4.7 µM
Ratio of vitamin C to vitamin K3 200, incubation 1 day
  VK3 CD50: 2.3 µM
Ratio of vitamin C to vitamin K3 200, incubation 2 days
  VK3 CD50: 2.3 µM
Ratio of vitamin C to vitamin K3 200, incubation 3 days
  VK3 CD50: 2.0 µM
Incubation 1 day
  CD50: 18.7 µM
Incubation 2 days
  CD50: 19.0 µM
Incubation 3 days
  CD50: 18.7 µM

Source: patent US9642833B2, “Vitamin C and vitamin K, and compositions thereof for treatment of osteolysis or prolongation of prosthetic implant” (IC-MEDTECH CORPORATION, priority 2009, dated 2017)
